Source: US7417058B2, “Pharmaceutically active benzsulfonamide derivatives as inhibitors of protein junkinases” (Laboratoires Serono S.A., priority 2000, dated 2008)
pIC50: −log10 of the molar value.

Legend:
[1] = target: GST-JNK2 (Homo sapiens, UniProt P45984); assay: JNK2 in vitro assay (33P incorporation into c-Jun, SPA); format: biochemical; details: recombinant pre-activated GST-JNK2, biotinylated GST-c-Jun, 2 μM 33γ-ATP, 120 min RT
Procedure: (§1) JNK2 and -3 in vitro Assays:
(§2) The phosphorylation of c-jun by JNK2 or JNK3 may be followed by monitoring the incorporation of ^33P into c-jun following the protocol below. The inhibitory activity of the compounds according to formula I, in respect of c-jun phosphorylation through JNK, is determined by calculating the phosphorylation activity of a JNK in the presence or absence of the test compounds according to formula I.
(§3) JNK3 and/or -2 assays are performed in 96 well MTT plates: incubation of 0.5 μg of recombinant, pre-activated GST-JNK3 or GST-JNK2 with 1 μg of recombinant, biotinylated GST-c-Jun and 2 μM ^33γ-ATP (2 nCi/μl), in the presence or absence of compounds according to formula I and in a reaction volume of 50 μl containing 50 mM Tris-HCl, pH 8.0; 10 mM MgCl2; 1 mM Dithiothreitol, and 100 μM NaVO4. The incubation is performed for 120 min. at R.T and stopped upon addition of 200 μl of a solution containing 250 μg of Streptavidine-coated SPA beads (Amersham, Inc.)*, 5 mM EDTA, 0.1% Triton X-100 and 50 μM ATP, in phosphate saline buffer.
(§4) After incubation for 60 minutes at RT, beads are sedimented by centrifugation at 1500×g for 5 minutes, resuspended in 200 μl of PBS containing 5 mM EDTA, 0.1% Triton X-100 and 50 μM ATP and the radioactivity measured in a scintillation β counter, following sedimentation of the beads as described above. By replacing biotinylated GST-c Jun with biotinylated GST-1ATF2 or biotinylated myelin basic protein, this assay may also be used to measure inhibition of pre-activated p38 and ERK MAP Kinases, respectively.
(§5) The values indicated in respect of JNK2 and 3 refer to the IC50 (μM), i.e. the amount necessary to achieve 50% inhibition either of JNK3 or JNK2.

[2] = target: GST-JNK3 (Homo sapiens, UniProt P53779); assay: JNK3 in vitro assay (33P incorporation into c-Jun, SPA); format: biochemical; details: recombinant pre-activated GST-JNK3, biotinylated GST-c-Jun, 2 μM 33γ-ATP, 120 min RT
Procedure: as §1, §2, §3, §4, §5

GST-JNK2, sequence (P45984 whole entry): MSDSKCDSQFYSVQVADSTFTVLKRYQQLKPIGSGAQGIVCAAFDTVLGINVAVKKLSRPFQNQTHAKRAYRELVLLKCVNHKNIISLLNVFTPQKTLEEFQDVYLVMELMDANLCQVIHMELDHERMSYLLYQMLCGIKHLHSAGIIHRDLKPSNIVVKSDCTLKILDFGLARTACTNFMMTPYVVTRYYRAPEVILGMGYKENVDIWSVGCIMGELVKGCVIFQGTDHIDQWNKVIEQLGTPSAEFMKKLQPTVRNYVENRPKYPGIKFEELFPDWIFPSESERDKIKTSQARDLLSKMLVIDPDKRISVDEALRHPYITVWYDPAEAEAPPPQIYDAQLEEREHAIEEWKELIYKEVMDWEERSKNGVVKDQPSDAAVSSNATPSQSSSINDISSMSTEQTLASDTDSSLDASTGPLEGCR
GST-JNK3, sequence (P53779 whole entry): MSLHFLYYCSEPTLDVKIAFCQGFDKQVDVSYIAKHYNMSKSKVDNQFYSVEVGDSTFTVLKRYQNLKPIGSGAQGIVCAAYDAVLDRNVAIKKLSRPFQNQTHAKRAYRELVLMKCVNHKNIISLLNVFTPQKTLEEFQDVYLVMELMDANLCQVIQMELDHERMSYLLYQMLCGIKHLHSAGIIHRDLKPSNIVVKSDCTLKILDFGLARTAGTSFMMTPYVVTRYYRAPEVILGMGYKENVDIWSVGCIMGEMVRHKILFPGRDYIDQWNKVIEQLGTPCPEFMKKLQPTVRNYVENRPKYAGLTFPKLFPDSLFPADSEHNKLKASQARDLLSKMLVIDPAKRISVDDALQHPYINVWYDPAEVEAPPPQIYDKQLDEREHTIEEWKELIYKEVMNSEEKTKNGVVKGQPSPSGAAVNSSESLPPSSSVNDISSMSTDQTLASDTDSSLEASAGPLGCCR

Row | pIC50 [1] | pIC50 [2] | Compound
1 | > 6.15 | > 6.40 | O=C(NCc1cccc(S(=O)(=O)N2CCC(Nc3cccc(S(=O)(=O)C(F)(F)F)c3)CC2)c1)c1ccc(Cl)cc1 [Example 3, 4-chloro-N-{3-[(4-{3-[(trifluoromethyl)sulfonyl]anilino}-1-piperidinyl)sulfonyl]benzyl}benzamide]
2 | > 6.15 | > 6.40 | O=C(NCc1ccc(S(=O)(=O)N2CCC(NCCc3cccc(C(F)(F)F)c3)CC2)cc1)c1ccc(Cl)cc1 [Example 11, 4-chloro-N-(4-{[4-({2-[3-(trifluoromethyl)phenyl]ethyl}amino)-1-piperidinyl]sulfonyl}benzyl)benzamide]
3 | > 6.15 | > 6.40 | O=C(NCc1ccc(S(=O)(=O)N2CCC(NCCc3cccc(C(F)(F)F)c3)C2)cc1)c1ccc(Cl)cc1 (centres unmarked) [Example 31, 4-chloro-N-(4-{[3-({2-[3-(trifluoromethyl)phenyl]ethyl)amino)-1-pyrrolidinyl]sulfonyl}benzyl)benzamide]
4 | > 6.15 | > 6.40 | CCCCCCNC1CCN(S(=O)(=O)c2ccc(NC(=O)c3ccc(Cl)cc3)cc2)C1 (centres unmarked) [Example 28, 4-chloro-N-(4-{[3-(hexylamino)-1-pyrrolidinyl]sulfonyl}phenyl)benzamide]
